Reference: publication PMC9019100, “Development of NanoLuc-targeting protein degraders and a universal reporter system to benchmark tag-targeted degradation platforms” (Nature Communications, 2022)
Several values for one entry are separate records, joined by “and”; a condition that tells them apart may be missing. Equal values may be shown once. Read-outs that look alike come from different tables or passages of the source.

Assays:
[1] = biological target: T1, Halo-EGFP-NanoLuc-FKBP^F36V (H-E-N-F) fusion protein (UniProt P0A3G2+P62942+Q9GV45, A155T/A167V/A172T/A224E/A31E/A60N/A81I/C128F/C176G/D78G/E160K/E257K/F37V/F95D/H272N/I117V/K175M/K195N/K70R/L47V/L54V/L88M/L99Q/M102K/N193R/N227D/P142E/P291S/Q151K/Q38R/Q45L/S2A/S58T/T264A/V71I/Y165I/Y273L/Y87F); assay type: cell-based; details: replicate wells; for Blank corrected Raw Data (470-80): +dox, PROTAC 500nM
Target sequence in this assay (Q9GV45 other isoform, or with tags, fused parts or gaps with the stated changes): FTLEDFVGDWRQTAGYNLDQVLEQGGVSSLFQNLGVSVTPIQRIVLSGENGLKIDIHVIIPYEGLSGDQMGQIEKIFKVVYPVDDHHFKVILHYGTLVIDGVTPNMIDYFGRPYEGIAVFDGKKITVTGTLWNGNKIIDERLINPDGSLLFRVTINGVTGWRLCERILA
Target sequence in this assay (P0A3G2 other isoform, or with tags, fused parts or gaps with the stated changes): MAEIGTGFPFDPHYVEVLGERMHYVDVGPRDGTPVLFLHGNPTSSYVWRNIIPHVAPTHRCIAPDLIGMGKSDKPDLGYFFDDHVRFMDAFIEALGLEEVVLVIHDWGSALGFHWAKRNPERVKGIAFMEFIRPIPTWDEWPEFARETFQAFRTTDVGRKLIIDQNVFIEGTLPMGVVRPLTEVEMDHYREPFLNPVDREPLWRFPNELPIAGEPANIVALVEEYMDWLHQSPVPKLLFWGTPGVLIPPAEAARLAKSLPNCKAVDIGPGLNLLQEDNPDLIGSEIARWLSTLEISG
Target sequence in this assay (P62942 whole entry F37V, the tested form may be a part): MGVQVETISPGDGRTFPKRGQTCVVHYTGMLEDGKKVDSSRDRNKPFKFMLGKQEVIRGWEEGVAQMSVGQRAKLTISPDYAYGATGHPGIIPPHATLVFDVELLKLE

[2] = biological target: T1, Halo-EGFP-NanoLuc-FKBP^F36V (H-E-N-F) fusion protein; assay type: cell-based; details: 5 h
Target sequence in this assay (Q9GV45 other isoform, or with tags, fused parts or gaps with the stated changes): as the sequence (Q9GV45 other isoform, or with tags, fused parts or gaps with the stated changes) above
Target sequence in this assay (P0A3G2 other isoform, or with tags, fused parts or gaps with the stated changes): as the sequence (P0A3G2 other isoform, or with tags, fused parts or gaps with the stated changes) above
Target sequence in this assay (P62942 whole entry F37V, the tested form may be a part): as the sequence (P62942 whole entry F37V, the tested form may be a part) above

[3] = test system: MLKL^−/− HT29 cells expressing untagged MLKL; assay type: cell-based; details: MLKL-/- + MLKL, independent experiments
Description: Cell death was assessed by flow cytometric analysis of PI exclusion. […] Cell death was assessed by flow cytometric analysis of PI exclusion. […] Cell death was assessed by flow cytometric analysis of PI exclusion. e N = 4, f N = 3 independent experiments (symbols), EB represent mean ± SD. g Western from MLKL^−/−CASP8^−/− HT29 cells stably expressing the doxycycline-inducible C-terminal fusion protein, MLKL-NanoLuc (MLKL-NLuc) and constitutively expressing the C-terminal fusion protein caspase-8-FKBP^F36V. […] Cell death was assessed using an IncuCyte and Cytotox-Red uptake. N = 3 independent experiments, one representative experiment shown, EB represent mean ± SD.

wild-type HT29 cells = experiment: Necroptosis assay (PI exclusion, flow cytometry), wild-type HT29 cells, TNF+SM+IDN; assay type: cell-based, human; details: Unt (no death stimulus); sheet S5F
Description: To simulate necroptosis, cells were seeded into 96-well plates ±40 ng/mL doxycycline, to induce construct expression, and treated with 100 ng/mL FLAG-TNF (recombinant human, in-house), 500 nM compound A Smac mimetic (kindly gifted by TetraLogics Pharmaceuticals) and 5 μM IDN-6556 (Cayman) or 10 uM Z-VAD-fmk (Selleckchem) overnight (16–24 h). Degrader compounds or a DMSO vehicle control were added for 5 h, as stated in the Fig. legends. Cells were detached using Trypsin-EDTA (Merck) and resuspended in cell supernatants containing 10 μg/mL propidium iodide (PI). PI exclusion analysis was performed using an LSR II flow cytometer (Becton Dickinson, NJ) with 10,000 single-cell events per sample. Flow cytometry data were analysed using WEASEL version 2.7 software (Frank Battye).
Supplementary Figure 5. […]
NC4. Data are representative of N = 3 independent experiments. f-h. HT29 cells were stimulated with DMSO (control) or 500 nM of degrader for 5 hours before the addition of TNF (100 ng/mL) + Smac mimetic (compound A; 500 nM-1 µM) + caspase inhibitor; Emricasan (IDN) (5 µM), for 24 hours. Cell death was assessed by flow cytometric analysis of PI exclusion. N = 3 replicates (symbols) is shown, EB; mean ± SD. Data are representative of N = 3 independent experiments. i. Representative flow cytometry gating strategy. Source data are provided as a Source Data file.

[4] = test system: MLKL^−/−CASP8^−/− HT29 cells expressing MLKL-NLuc and caspase-8-FKBP^F36V; details: TNF+SM
[5] = biological target: T1, Halo-EGFP-NanoLuc-FKBP^F36V (H-E-N-F) fusion protein; assay type: cell-based; set-up: expressed in transfected cells; host or cells: immortalized mouse dermal fibroblasts (iMDFs), ubiquitin promoter, constitutive; details: 500 nM
Target sequence in this assay (P0A3G2 other isoform, or with tags, fused parts or gaps with the stated changes): as the sequence (P0A3G2 other isoform, or with tags, fused parts or gaps with the stated changes) above
Target sequence in this assay (Q9GV45 other isoform, or with tags, fused parts or gaps with the stated changes): as the sequence (Q9GV45 other isoform, or with tags, fused parts or gaps with the stated changes) above
Target sequence in this assay (P62942 whole entry F37V, the tested form may be a part): as the sequence (P62942 whole entry F37V, the tested form may be a part) above

CCc1cccc(N(CC)C(=O)Cn2c(C(=O)NC3CCC(C(=O)NCCCCCCCC(=O)NCCCCNc4cccc5c4C(=O)N(C4CCC(=O)NC4=O)C5=O)CC3)cc3ccccc32)c1 (stereo not drawn) [NC4]
NanoLuc luminescence, Blank corrected (470-80) ([1]; 62.5nM, 2h): 4980 and 5006 and 4972
NanoLuc luminescence, Blank corrected (470-80) ([1]; 62.5nM, 4h): 5208 and 3005 and 4773 and 4875
NanoLuc luminescence, Blank corrected (470-80) ([1]; 62.5nM, 6h): 2838 and 2892 and 3957
NanoLuc luminescence, Blank corrected (470-80) ([1]; 62.5nM, 8h): 2020 and 2221 and 2420
NanoLuc luminescence, Blank corrected (470-80) ([1]; 62.5nM, 10h): 1449 and 1207 and 1837
NanoLuc luminescence, Blank corrected (470-80) ([1]; 250nM, 2h): 1535 and 1072 and 1399
NanoLuc luminescence, Blank corrected (470-80) ([1]; 250nM, 4h): 1441 and 855 and 1118
NanoLuc luminescence, Blank corrected (470-80) ([1]; 250nM, 6h): 752 and 593 and 657 and 1043
NanoLuc luminescence, Blank corrected (470-80) ([1]; 250nM, 8h): 745 and 600 and 575
NanoLuc luminescence, Blank corrected (470-80) ([1]; 250nM, 10h): 292 and 341 and 527
NanoLuc luminescence, Blank corrected (470-80) ([1]; 500nM, 2h): 894 and 649 and 1055 and 784
NanoLuc luminescence, Blank corrected (470-80) ([1]; 500nM, 4h): 690 and 518 and 723
NanoLuc luminescence, Blank corrected (470-80) ([1]; 500nM, 6h): 437 and 546 and 398 and 460
NanoLuc luminescence, Blank corrected (470-80) ([1]; 500nM, 8h): 261 and 295 and 351
NanoLuc luminescence, Blank corrected (470-80) ([1]; 500nM, 10h): 255 and 239 and 173
Blank corrected Raw Data (470-80) ([1]; DMSO (control) co-treatment): 1248 and 1289 and 1195 and 929
Blank corrected Raw Data (470-80) ([1]; co-treatment with MG132 (10uM)): 3006 and 3126 and 2730 and 2907
degradation of the H-E-N-F substrate protein by Western blot, comparison of NanoTACs ([2]; 125-500 nM): consistently outperforming the first analogue NC1
low concentration triggering degradation of the fusion protein ([2]; Western blot): ~ 30 nM
Live cells (%PI negative) after TNF+911+zVAD ([3]; 3.9nM): 6.4 and 6.9 and 5.3
Live cells (%PI negative) after TNF+911+zVAD ([3]; 7.8nM): 6.6 and 6 and 6.3
Live cells (%PI negative) after TNF+911+zVAD ([3]; 31.25nM): 6.5 and 6 and 7.1
Live cells (%PI negative) after TNF+911+zVAD ([3]; 62.5nM): 6 and 5.5 and 7.5
Live cells (%PI negative) after TNF+911+zVAD ([3]; 250nM): 4.9 and 6.4 and 6.1
Live cells (%PI negative) after TNF+911+zVAD ([3]; 500nM): 4 and 4.7 and 6.1
Live cells (%PI negative) after TNF+911+zVAD ([3]; 1000nM): 5.9 and 5.2 and 6.1
viable cells (PI exclusion) (wild-type HT29 cells): 70.2 and 66.8 and 70.5
Cytotox-Red uptake (cell death), IncuCyte ([4]; elapsed 0 h): 176
Cytotox-Red uptake (cell death), IncuCyte ([4]; elapsed 0.5 h): 196.812
Cytotox-Red uptake (cell death), IncuCyte ([4]; elapsed 1 h): 269.75
Cytotox-Red uptake (cell death), IncuCyte ([4]; elapsed 2 h): 726.062
Cytotox-Red uptake (cell death), IncuCyte ([4]; elapsed 3 h): 1441.19
Cytotox-Red uptake (cell death), IncuCyte ([4]; elapsed 4 h): 2153.69
Cytotox-Red uptake (cell death), IncuCyte ([4]; elapsed 5 h): 2734
Cytotox-Red uptake (cell death), IncuCyte ([4]; elapsed 6 h): 3193.62
Cytotox-Red uptake (cell death), IncuCyte ([4]; elapsed 6.5 h): 3375.81
Cytotox-Red uptake (cell death), IncuCyte ([4]; elapsed 7 h): 3569.31
Cytotox-Red uptake (cell death), IncuCyte ([4]; elapsed 7.5 h): 3696.25
Cytotox-Red uptake (cell death), IncuCyte ([4]; elapsed 8 h): 3846.56
Cytotox-Red uptake (cell death), IncuCyte ([4]; elapsed 9 h): 4053
Cytotox-Red uptake (cell death), IncuCyte ([4]; elapsed 9.5 h): 4125.31
Cytotox-Red uptake (cell death), IncuCyte ([4]; elapsed 10 h): 4221.25
Cytotox-Red uptake (cell death), IncuCyte ([4]; elapsed 10.5 h): 4287.44
Cytotox-Red uptake (cell death), IncuCyte ([4]; elapsed 11 h): 4360
Cytotox-Red uptake (cell death), IncuCyte ([4]; elapsed 12 h): 4474.25
Cytotox-Red uptake (cell death), IncuCyte ([4]; elapsed 13 h): 4557.19
Cytotox-Red uptake (cell death), IncuCyte ([4]; elapsed 13.5 h): 4775.06
Cytotox-Red uptake (cell death), IncuCyte ([4]; elapsed 14 h): 4760.06
Cytotox-Red uptake (cell death), IncuCyte ([4]; elapsed 14.5 h): 4770
Cytotox-Red uptake (cell death), IncuCyte ([4]; elapsed 15 h): 4767.69
Cytotox-Red uptake (cell death), IncuCyte ([4]; elapsed 16 h): 4884.75
Cytotox-Red uptake (cell death), IncuCyte ([4]; elapsed 17 h): 4901.56
Cytotox-Red uptake (cell death), IncuCyte ([4]; elapsed 18 h): 4950.62
Cytotox-Red uptake (cell death), IncuCyte ([4]; elapsed 19 h): 4959.75
Cytotox-Red uptake (cell death), IncuCyte ([4]; elapsed 19.5 h): 4920.31
time up to which degradation was seen, degrader left in the medium ([5]; 5, 24 or 48 h): up to 24 h
time up to which degradation was maintained, degrader removed at 5 h ([5]; 24 or 48 h after removal): not maintained
